Holding throughout (test): inhibition of tumour cell growth, NCI panel, 48 h
In test [1] the test system is HCC-2998 colon.
Test [2] concerns HOP-62 NSCLC.
Test [3] deals with HOP-92 NSCLC.
The subject of test [4] is HT29 colon.
The test system of test [5] is K-562 leukemia.
Test [6] deals with MDA-MB-435.
The test system of test [7] is OVCAR-8 ovarian.
For test [8], the system named is RPMI-8226 leukemia.
Test [9] concerns SNB-75 CNS.
Test [10] concerns SW-620 colon.

Several values for one entry are separate records, joined by “and”; a condition that tells them apart may be missing. Equal values may be shown once.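 Results reflect a 48-hour exposure of cells in 96-well plates to compound at five concentrations. GI50 = concentration required for 50% inhibition of growth. TGI: concentration producing complete growth inhibition.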 Where a SMILES comes first, the peptide text is derived from it. The star is where a group is joined. Boc = CC(C)(C)OC(=O)*

For the compound `Cc1ccc2c(C3C(C#N)=C(N)Oc4cc5ccccc5cc43)cc(=O)oc2c1` (centres undefined), the GI50 in test [1] was 3.91 µM; in test [2], 1.22 µM; in test [3] it was 19.7 µM; in test [4] it was 3 µM; in [5], 394 nM; in [6], 286 nM. Besides, the GI50 in [7] was 4.47 µM; in test [8], 3230 nM; in test [9], 6.89 µM; in [10], 736 nM. Besides, the TGI was 58.6 µM in test [1]; more than 100 µM in [2]; 84 µM in test [3]; 13.1 µM in [4]; more than 100 µM in [5]; 1.07 µM in test [6]. The TGI in [7] was more than 100 µM; in [8] it was 30.2 µM; in test [9], more than 100 µM; in test [10], more than 100 µM.
With `BrCc1cccc(C[P+](c2ccccc2)(c2ccccc2)c2ccccc2)c1`, the GI50 is 21.8 µM in test [1]; 4.86 µM in [2]; 2.84 µM in test [3]; 14.9 µM in test [4]; 4260 nM in [5]; 8380 nM in [6]. Moreover, the GI50 in [7] is 6.65 µM; in test [8], 2180 nM; in test [9], 6.78 µM; in test [10], 22300 nM. Also, the TGI in [1] is more than 100 µM; in test [2] it was more than 100 µM; in [3], 52.4 µM; in test [4] it was more than 100 µM; in test [5] it was more than 100 µM; in test [6] it was more than 100 µM. Also, the TGI in [7] was more than 100 µM; in test [8], 22.7 µM; in [9], more than 100 µM; in test [10] it was more than 100 µM.
In the case of `COC(=O)C(C)NC(=O)C(CCSC)NC(=O)C(Cc1ccccc1)NC(=O)OC(C)(C)C` (stereo not drawn) (Boc-Phe-Met-Ala-OMe; configuration not given here), the GI50 in [1] was 20.1 µg/mL; in [5], 32.7 µg/mL; in test [6] it was 39.2 µg/mL; in test [8], 22.4 µg/mL; in test [9] it was 99.7 µg/mL; in test [10] it was 18.2 µg/mL. For the same compound, the TGI was 36.4 µg/mL and > 100 µM in test [1]; more than 100 µM in test [2]; more than 100 µM in test [3]; more than 100 µM in test [4]; 91.2 µg/mL in [5]; more than 100 µM in test [6]. In addition, the TGI was more than 100 µM in [7]; 49.5 µg/mL and > 100 µM in test [8]; more than 100 µM in test [9]; 37.2 µg/mL and > 100 µM in [10].
As to `COc1ccc(-c2nsc3c2NC(=O)CC3c2cccc(OC)c2)cc1` (centres undefined), the GI50 is 2.13 µM in [1]; 2.41 µM in test [2]; 2.31 µM in test [3]; 0.427 µM in test [4]; 358 nM in test [5]; 282 nM in test [6]. In addition, the GI50 in test [7] is 3.22 µM; in [8] it was 1610 nM; in test [9] it was 1.3 µM; in test [10] it was 412 nM. Besides, the TGI in test [1] is more than 100 µM; in test [2] it was 33.9 µM; in test [3], 43 µM; in test [4], more than 100 µM; in test [5], more than 100 µM; in test [6], 0.868 µM. The TGI in [7], in test [8] and in test [10] was more than 100 µM throughout.
Regarding `COc1ccc2c(c1)c[n+](C)c1c3cc(OC)c(OC)cc3ccc21`, the GI50 in [1] was 1.86 µM and 7.34 µM; in [2], 4.63 µM; in test [3], 3.69 µM and 14.6 µM; in test [4], 1.01 µM and 3.61 µM; in [6], 1510 nM and 5100 nM; in test [9], 6.66 µM. For the same compound, the TGI in test [1] was 3.71 µM and 19.9 µM; in [2], 15.2 µM; in [3] it was 9.98 µM and 35.1 µM; in [4], 2.31 µM and 15.5 µM; in test [5] it was 43.1 µM; in test [6], 2.98 µM and 20 µM. The TGI is 4.61 µM and 6.34 µM in test [7]; 7.28 µM in [8]; 20 µM in test [9]; 3.13 µM and 3.76 µM in test [10].
`CC1(Br)Cc2ccccc2C1=O` (centres undefined): the TGI is more than 100 µM in test [1]; 29.1 µM in test [2]; 16.5 µM in test [3]; 15.4 µM in [4]; 12.4 µM in test [6]; 15.7 µM in test [7]. In addition, the TGI is 14.7 µM in test [8], 27 µM in test [9] and 2.69 µM in test [10]. In addition, the GI50 is 571 nM in [5]; 2140 nM in test [6]; 4.11 µM in test [7]; 3020 nM in test [8]; 444 nM in test [10].
Consider `O=[N+]([O-])c1cccc2ccc(N/N=C/c3ccccc3O)nc12`, for which the GI50 was more than 100 µM in test [1]; more than 100 µM in test [2]; more than 100 µM in test [3]; more than 100 µM in test [4]; 1460 nM in [5]; more than 100000 nM in [6]. In addition, the GI50 in test [7] was more than 100 µM; in test [8] it was 27 nM; in test [9] it was more than 37.8 µM; in test [10] it was 3880 nM. Further, the TGI in [1], in [2], in test [3], in test [4], in [5] and in test [6] was more than 100 µM each time. In addition, the TGI in test [7] was more than 100 µM; in test [8] it was 3.12 µM; in test [9], more than 70.6 µM; in test [10] it was more than 100 µM.
With `O=C1c2cccc3cccc(c23)C(=O)N1CCCCCN1CCN(CCCCCOc2ccc(-c3nc4ccc(N5CCOCC5)cc4[nH]3)cc2)CC1`, the GI50 in test [1] is 36.5 µM; in test [2], 35.7 µM; in [3], 25.1 µM; in test [4], 5.99 µM; in test [5] it was 135 nM; in [6], 3590 nM. Moreover, the GI50 was 1.32 µM in test [7], 787 nM in [8], 18.3 µM in test [9] and 1830 nM in test [10]. For the same compound, the TGI is more than 91 µM in [1]; 79.2 µM in test [2]; more than 58.2 µM in [3]; 23.8 µM in test [4]; 13.2 µM in [6]; 4.95 µM in test [7]. Besides, the TGI in [8] came out at 3.72 µM; in test [9], 34.6 µM; in test [10], 4.21 µM.
For `CCc1c(Cl)c(C)cc(O)c1Cl`, the TGI in test [1] is 26.7 µM; in test [2] it was more than 100 µM; in test [3], 92.3 µM; in [4] it was 77.6 µM; in [5], more than 100 µM; in [6], more than 100 µM. Moreover, the TGI in [7] was more than 100 µM; in test [8], 57.5 µM; in test [9], more than 100 µM; in test [10], 47.9 µM.
Turning to `Cc1ccc(Nc2oc(-c3ccccc3)nc2[P+](c2ccccc2)(c2ccccc2)c2ccccc2)cc1`, the GI50 in test [1] was 1.03 µM; in test [2], 1.34 µM; in test [3] it was 0.209 µM; in test [4] it was 0.38 µM; in test [5] it was 324 nM; in test [6], 606 nM. The GI50 was 1.04 µM in test [7], 243 nM in test [8], 1.15 µM in test [9] and 675 nM in [10]. Moreover, the TGI in test [1] stood at 2.4 µM; in test [2] it was 3.24 µM; in [3], 1.02 µM; in test [4], 1.59 µM; in test [5], 1.44 µM; in test [6], 1.97 µM. Also, the TGI in test [7] turned out to be 3.34 µM; in test [8], 0.639 µM; in test [9], 3.71 µM; in test [10], 2.05 µM.
Turning to `COc1ccccc1Nc1ncc(-c2ccccc2)o1`, the GI50 in test [1] was more than 25 µM; in test [2], more than 25 µM; in test [3] it was more than 25 µM; in test [4], more than 25 µM; in [5], more than 25000 nM; in [6] it was more than 25000 nM. The GI50 is more than 25 µM in test [7], more than 25000 nM in test [8], more than 25 µM in [9] and more than 25000 nM in [10]. Moreover, the TGI in [1], in test [2], in test [3], in test [4], in [5] and in test [6] was more than 25 µM throughout. Further, the TGI in [7], in test [8], in test [9] and in [10] was more than 25 µM throughout.
Turning to `COC(=O)C1=CN(CC2=CC(=O)C(C)=CC2=O)C=C(C(=O)OC)C1c1cccc(OC)c1`, the GI50 is 12.5 µM in [1]; 19.3 µM in [2]; 10.6 µM in [3]; 37 µM in [4]; 3840 nM in test [5]; 5800 nM in test [6]. Also, the GI50 in test [7] is more than 51.9 µM; in [8], 1950 nM; in test [9], 31 µM; in test [10], 2200 nM. Further, the TGI in [1] was 32.6 µM; in test [2], 38.9 µM; in [3], 33.8 µM; in test [4] it was more than 100 µM; in test [5], more than 35.6 µM; in test [6], 16.2 µM. Besides, the TGI in [7] was more than 100 µM; in test [8] it was 5.06 µM; in test [9] it was more than 100 µM; in test [10], 4.81 µM.
`C=C1C(=O)OC2CC(C)C(C(O)CC(C)O)=CCC12` (centres undefined): the TGI in test [1] was 33.2 µM; in [2], more than 74.3 µM; in test [3], 27.8 µM; in test [4], 35.7 µM; in test [5], 37.1 µM; in test [6], more than 59.2 µM. For the same compound, the TGI in test [7] was determined as 43.8 µM; in [8], 34.2 µM; in test [9], 47.2 µM; in test [10], 37.6 µM.
For `O=S(=O)(Nc1ccc(Cl)cc1Cl)c1ccc(-c2cnc(C3CC3)o2)cc1`, the GI50 was 1.6 µM in [1]; 0.909 µM in test [2]; 0.491 µM in test [3]; 0.41 µM in [4]; 382 nM in test [5]; 182 nM in test [6]. For the same compound, the GI50 in test [7] is 1.79 µM; in [8], 903 nM; in test [9] it was 0.185 µM; in test [10], 423 nM. The TGI in test [1] is 16.5 µM; in test [2] it was 55.4 µM; in test [3], 15.3 µM; in [4], 30.6 µM; in test [5] it was more than 100 µM; in test [6], 0.727 µM. Moreover, the TGI in test [7] was more than 82.1 µM; in test [8], 44.8 µM; in [9], 0.75 µM; in test [10] it was more than 100 µM.
As to `O=C(NNc1ccccc1)C(=O)NNc1ccccc1`, the GI50 was 2.96 µM in [1]; more than 100 µM in test [2]; more than 100 µM in [3]; more than 100 µM in test [4]; 396 nM in test [5]; 1840 nM in test [6]. For the same compound, the GI50 in [7] was more than 100 µM; in test [8], more than 100000 nM; in test [9], 11.6 µM; in test [10], 7300 nM. Besides, the TGI in test [1], in test [2], in [3], in test [4], in [5] and in test [6] was more than 100 µM in each case. Moreover, the TGI in test [7], in test [8], in [9] and in test [10] was more than 100 µM in each case.
`CCN(Cc1ccc(F)cc1)c1ccc(CO)c(Br)c1`: the GI50 was 5.29 µM in [1]; 0.646 µM in test [2]; 0.173 µM in test [3]; 2.4 µM in [4]; 487 nM in test [5]; 19400 nM in test [6]. For the same compound, the GI50 was 9.64 µM in test [7], 646 nM in test [8], 6.28 µM in test [9] and 475 nM in [10]. In addition, the TGI turned out to be 30.8 µM in test [1]; 20.2 µM in test [2]; 6.23 µM in test [3]; 19.4 µM in [4]; 18.4 µM in [5]; 49.6 µM in [6]. Also, the TGI was 47.1 µM in [7], 22.1 µM in [8], 39.8 µM in [9] and more than 41.2 µM in test [10].

The values above are taken from PubChem BioAssay (NCI).
